The results in this text go back to patent publication US9580390B2, “Indazole compounds as kinase inhibitors and method of treating cancer with same” (University Health Network, priority 2011, dated 2017).

The experiment deals with colon cancer cells (HCT116). Put plainly: Cancer cell line growth inhibition (SRB assay). To be noted: Homo sapiens, HCT-116; HCT116 colon cancer cells, SRB assay; read-out: Cancer Cell Line GI50 Range HCT116. In kind it is cell-based.
For the compound `CN1CCC(Oc2ccc(-c3n[nH]c4ccc(C(=O)N[C@@H]5CCCc6ccccc65)cc34)cc2)CC1` [Example A26, (R)-3-(4-((1-methylpiperidin-4-yl)oxy)phenyl)-N-(1,2,3,4-tetrahydronaphthalen-1-yl)-1H-indazole-5-carboxamide], the GI50 is 0.1 to 0.5 µM. The result for `O=C(Nc1ccc2[nH]nc(-c3ccc(NC4CCCC4)cc3)c2c1)C(c1ccsc1)N1CCCC1` (stereo not drawn) [Example A70, N-(3-(4-(cyclopentylamino)phenyl)-1H-indazol-5-yl)-2-(pyrrolidin-1-yl)-2-(thiophen-3-yl)acetamide] reads 0.1 to 0.5 µM. For the compound `CN1CCN(c2ccc(-c3n[nH]c4ccc(NC(=O)C(c5ccsc5)N5CCCC5)cc34)cc2)CC1` (stereo not drawn) [Example A2, N-(3-(4-(4-methylpiperazin-1-yl)phenyl)-1H-indazol-5-yl)-2-(pyrrolidin-1-yl)-2-(thiophen-3-yl)acetamide], the GI50 is below 0.1 µM. For `COc1cc(-c2n[nH]c3ccc(NC(=O)C(c4ccsc4)N4CCCC4)cc23)ccc1OC1CCN(C)CC1` (stereo not drawn) [Example A21, N-(3-(3-methoxy-4-((1-methylpiperidin-4-yl)oxy)phenyl)-1H -indazol-5-yl)-2-(pyrrolidin-1-yl)-2-(thiophen-3-yl)acetamide], the GI50 was below 0.1 µM. The result for `C[C@@H](NC(=O)c1ccc2[nH]nc(-c3ccc(OC4CCN(C)CC4)cc3)c2c1)c1cccs1` [Example A55, (R)-3-(4-((1-methylpiperidin-4-yl)oxy)phenyl)-N-(1-(thiophen-2-yl)ethyl)-1H-indazole-5-carboxamide] reads below 0.1 µM; that for `O=C(Nc1ccc2[nH]nc(-c3ccc4c(c3)OCCCO4)c2c1)C(c1ccsc1)N1CCCC1` (stereo not drawn) [Example A20, N-(3-(3,4-dihydro-2H-benzo[b][1,4]dioxepin-7-yl)-1H-indazol-5-yl)-2-(pyrrolidin-1-yl)-2-(thiophen-3-yl)acetamide], 0.1 to 0.5 µM. Regarding `COc1cc(-c2n[nH]c3ccc(NC(=O)C(c4ccsc4)N4CCCC4)cc23)ccc1OC1CCNCC1` (stereo not drawn) [Example A8, N-(3-(3-methoxy-4-(piperidin-4-yloxy)phenyl)-1H-indazol-5-yl)-2-(pyrrolidin-1-yl)-2-(thiophen-3-yl)acetamide], the GI50 was below 0.1 µM.

As to `CN1CCC(Oc2ccc(-c3n[nH]c4ccc(NC(=O)Nc5ccccc5Cl)cc34)cc2)CC1` [Example A62, 1-(2-chlorophenyl)-3-(3-(4-((1-methylpiperidin-4-yl)oxy)phenyl)-1H-indazol-5-yl)urea], the GI50 was above 0.5 µM. Regarding `Cc1cc(C)c(NC(=O)Nc2ccc3[nH]nc(-c4ccc(OC5CCN(C)CC5)cc4)c3c2)c(Cl)c1` [Example A77, 1-(2-chloro-4,6-dimethylphenyl)-3-(3-(4-((1-methylpiperidin-4-yl)oxy)phenyl)-1H-indazol-5-yl)urea], the GI50 lay in the range of 0.1 to 0.5 µM. `CN1CCN(Cc2ccc(-c3n[nH]c4ccc(NC(=O)C(c5ccsc5)N5CCCC5)cc34)cc2)CC1` (stereo not drawn) [Example A67, N-(3-(4-((4-methylpiperazin-1-yl)methyl)phenyl)-1H-indazol-5-yl)-2-(pyrrolidin-1-yl)-2-(thiophen-3-yl)acetamide]: the GI50 lay within 0.1 to 0.5 µM. The result for `CN(C)CCCOc1ccc(-c2n[nH]c3ccc(NC(=O)C(c4ccsc4)N4CCCC4)cc23)cc1` (stereo not drawn) [Example A43, N-(3-(4-(3-(dimethylamino)propoxy)phenyl)-1H-indazol-5-yl)-2-(pyrrolidin-1-yl)-2-(thiophen-3-yl)acetamide] reads below 0.1 µM; that for `C[C@H](NC(=O)c1ccc2[nH]nc(-c3ccc(N4CCOCC4)cc3)c2c1)C1CCCCC1` [Example A40, (S)-N-(1-cyclohexylethyl)-3-(4-morpholinophenyl)-1H-indazole-5-carboxamide], 0.1 to 0.5 µM; that for `CN1CCN(c2ccc(-c3n[nH]c4ccc(NC(=O)C5CCCc6ccccc65)cc34)cc2)CC1` (stereo not drawn) [Example A11, N-(3-(4-(4-methylpiperazin-1-yl)phenyl)-1H-indazol-5-yl)-1,2,3,4-tetrahydronaphthalene-1-carboxamide], 0.1 to 0.5 µM. The result for `CC[C@@H](NC(=O)c1ccc2[nH]nc(-c3ccc(N4CCOCC4)cc3)c2c1)c1cccs1` [Example A58, (R)-3-(4-morpholinophenyl)-N-(1-(thiophen-2-yl)propyl)-1H-indazole-5-carboxamide] reads 0.1 to 0.5 µM.

In the case of `O=C(Nc1ccc2[nH]nc(-c3ccc(CN4CCOCC4)cc3)c2c1)C(c1ccsc1)N1CCCC1` (stereo not drawn) [Example A3, N-(3-(4-(morpholinomethyl)phenyl)-1H-indazol-5-yl)-2-(pyrrolidin-1-yl)-2-(thiophen-3-yl)acetamide], the GI50 lay within 0.1 to 0.5 µM. With `O=C(Nc1ccc2[nH]nc(-c3ccc(NC4CCCCC4)cc3)c2c1)C(c1ccsc1)N1CCCC1` (stereo not drawn) [Example A68, N-(3-(4-(cyclohexylamino)phenyl)-1H-indazol-5-yl)-2-(pyrrolidin-1-yl)-2-(thiophen-3-yl)acetamide], the GI50 is above 0.5 µM. The result for `CN1CCOc2cc(-c3n[nH]c4ccc(NC(=O)C(c5ccsc5)N5CCCC5)cc34)ccc21` (stereo not drawn) [Example A17, N-(3-(4-methyl-3,4-dihydro-2H-benzo[b][1,4]oxazin-7-yl)-1H-indazol-5-yl)-2-(pyrrolidin-1-yl)-2-(thiophen-3-yl)acetamide] reads above 0.5 µM; that for `CN1CCC(Oc2ccc(-c3n[nH]c4ccc(NC(=O)C(c5ccsc5)C5CCCC5)cc34)cc2)CC1` (stereo not drawn) [Example A36, 2-cyclopentyl-N-(3-(4-((1-methylpiperidin-4-yl)oxy)phenyl)-1H-indazol-5-yl)-2-(thiophen-3-yl)acetamide], below 0.1 µM. Turning to `CC[C@@H](NC(=O)c1ccc2[nH]nc(-c3ccc(OC4CCN(C)CC4)cc3)c2c1)c1cccs1` [Example A63, (R)-3-(4-((1-methylpiperidin-4-yl)oxy)phenyl)-N-(1-(thiophen-2-yl)propyl)-1H-indazole-5-carboxamide], the GI50 was below 0.1 µM. Regarding `CN1CCc2cc(-c3n[nH]c4ccc(NC(=O)C(c5ccsc5)N5CCCC5)cc34)ccc21` (stereo not drawn) [Example A16, N-(3-(1-methylindolin-5-yl)-1H-indazol-5-yl)-2-(pyrrolidin-1-yl)-2-(thiophen-3-yl)acetamide], the GI50 was in the range of 0.1 to 0.5 µM. `O=C(N[C@@H](c1ccccc1)C1CC1)c1ccc2[nH]nc(-c3ccc(N4CCOCC4)cc3)c2c1` [Example A51, (R)-N-(cyclopropyl(phenyl)methyl)-3-(4-morpholinophenyl)-1H-indazole-5-carboxamide]: the GI50 lay in the range of 0.1 to 0.5 µM. The result for `O=C(Nc1ccc2[nH]nc(-c3cccc(CN4CCOCC4)c3)c2c1)C(c1ccsc1)N1CCCC1` (stereo not drawn) [Example A1, N-(3-(3-(morpholinomethyl)phenyl)-1H-indazol-5-yl)-2-(pyrrolidin-1-yl)-2-(thiophen-3-yl)acetamide] reads above 0.5 µM. On to `CN1CCC(Oc2ccc(-c3n[nH]c4ccc(NC(=O)Nc5c(Cl)cccc5Cl)cc34)cc2)CC1` [Example A76, 1-(2,6-dichlorophenyl)-3-(3-(4-((1-methylpiperidin-4-yl)oxy)phenyl)-1H-indazol-5-yl)urea], for which the GI50 is below 0.1 µM. The result for `CN1CCC(Oc2ccc(-c3n[nH]c4ccc(NC(=O)C(c5ccsc5)N5CCCCC5)cc34)cc2)CC1` (stereo not drawn) [Example A31, N-(3-(4-((1-methylpiperidin-4-yl)oxy)phenyl)-1H-indazol-5-yl)-2-(piperidin-1-yl)-2-(thiophen-3-yl)acetamide] reads below 0.1 µM; that for `O=C(Nc1ccc2[nH]nc(-c3ccc(OC4CCNCC4)cc3)c2c1)C(c1ccsc1)N1CCCC1` (stereo not drawn) [Example A28, N-(3-(4-(piperidin-4-yloxy)phenyl)-1H-indazol-5-yl)-2-(pyrrolidin-1-yl)-2-(thiophen-3-yl)acetamide], below 0.1 µM. The result for `CN(C)CCOc1ccc(-c2n[nH]c3ccc(NC(=O)C(c4ccsc4)N4CCCC4)cc23)cc1` (stereo not drawn) [Example A5, N-(3-(4-(2-(dimethylamino)ethoxy)phenyl)-1H-indazol-5-yl)-2-(pyrrolidin-1-yl)-2-(thiophen-3-yl)acetamide] reads below 0.1 µM.

On to `O=C(N[C@H](c1ccccc1)C1CC1)c1ccc2[nH]nc(-c3ccc(N4CCOCC4)cc3)c2c1` [Example A49, (S)-N-(cyclopropyl(phenyl)methyl)-3-(4-morpholinophenyl)-1H-indazole-5-carboxamide], for which the GI50 lay in the range of 0.1 to 0.5 µM. The result for `COc1cc(-c2n[nH]c3ccc(NC(=O)C(c4ccsc4)N4CCCC4)cc23)ccc1N1CCN(C)CC1` (stereo not drawn) [Example A10, N-(3-(3-methoxy-4-(4-methylpiperazin-1-yl)phenyl)-1H-indazol-5-yl)-2-(pyrrolidin-1-yl)-2-(thiophen-3-yl)acetamide] reads 0.1 to 0.5 µM; that for `O=C(Nc1ccc2[nH]nc(-c3ccc(N4CCOCC4)cc3)c2c1)C1CCCc2ccccc21` (stereo not drawn) [Example A22, N-(3-(4-morpholinophenyl)-1H-indazol-5-yl)-1,2,3,4-tetrahydronaphthalene-1-carboxamide], 0.1 to 0.5 µM; that for `CN1CCC(Oc2ccc(-c3n[nH]c4ccc(NC(=O)N5CCCc6ccccc65)cc34)cc2)CC1` [Example A73, N-(3-(4-((1-methylpiperidin-4-yl)oxy)phenyl)-1H-indazol-5-yl)-3,4-dihydroquinoline-1(2H)-carboxamide], above 0.5 µM. The result for `CN1CCC(Oc2ccc(-c3n[nH]c4ccc(NC(=O)C5c6ccccc6CCN5C)cc34)cc2)CC1` (stereo not drawn) [Example A39, 2-methyl-N-(3-(4-((1-methylpiperidin-4-yl)oxy)phenyl)-1H -indazol-5-yl)-1,2,3,4-tetrahydroisoquinoline-1-carboxamide] reads below 0.1 µM; that for `O=C(Nc1ccc2[nH]nc(-c3ccc(CCN4CCOCC4)cc3)c2c1)C(c1ccsc1)N1CCCC1` (stereo not drawn) [Example A6, N-(3-(4-(2-morpholinoethyl)phenyl)-1H-indazol-5-yl)-2-(pyrrolidin-1-yl)-2-(thiophen-3-yl)acetamide], 0.1 to 0.5 µM.

Turning to `C[C@@H](NC(=O)c1ccc2[nH]nc(-c3ccc(N4CCOCC4)cc3)c2c1)c1cccs1` [Example A53, (R)-3-(4-morpholinophenyl)-N-(1-(thiophen-2-yl)ethyl)-1H-indazole-5-carboxamide], the GI50 lay in the range of 0.1 to 0.5 µM.
